Assay results as given in US12421228B2 (Mirati Therapeutics, Inc., priority 2019, dated 2025).

Experiments:
[1] = tested on: Karpas 422 cells (EZH2 Y641N); experiment: Karpas 422 cell viability (Cell Titre Glo); format: cell-based; details: Homo sapiens, CTG viability, Day 4, Day 7 or Day 11 (time point not given), read-out: IC50 (nM), Inhibiting Proliferation of Cells Expressing an Activating Mutant Form of EZH2
Protocol: Karpas 422 cell line is a human B cell non-Hodgkin's lymphoma cell line established from a patient having DLBCL. This EZH2 heterozygotic cell line expresses a mutant form of EZH2 enzyme (Y641N) that increases histone H3 methylation and this mutation has been implicated in the tumorgenesis of lymphomas, such as DLBCL.
Karpas 422 cells (PHE cat no., 06101702) were cultured in RPMI medium supplemented with 20% fetal bovine serum and 1% penicillin/1% streptomycin and plated at a density of 1000 cells/90 μl/well in 96 well white assay plates. A dose response curve for compounds of the present invention was determined by adding a 10 μl aliquot of stock solutions of varying concentrations of compounds to the same medium in each well, over a concentration range of 10 μM using 3-fold dilutions to a final concentration of 1.5 nM. The plates were incubated at 37° C. for predetermined time periods, Day 4, Day 7, or Day 11, and the viability of the cells was measured using a CTG assay kit (Cell Titre Glo; Promega cat. no G7573) on Day 4 and Day 7 in accordance with the manufacturer's instructions.
For the viability assay for the Day 11 plates, the plates were subjected to centrifugation at 1100 rpm for five minutes on Day 7 and the supernatant was removed by aspiration. The cells were resuspended in 90 μl aliquot of the appropriate growth medium lacking the compound followed by addition of 10 μl of a 10× stock of the same compound at the same concentration. The viability of the Day 11 cells was measured using the CTG assay kit described above in accordance with the manufacturer's instructions. The IC50 values for each compound at each predetermined time point were calculated using Graph pad PRISM software and the results are shown in Table 8. A=≤250 nM; B=[…]−≤500 nM; C=>500 nM and N.D.=not determined.

[2] = target: purified human, His-tagged PRC2 complex (Homo sapiens (Human), UniProt O75530); experiment: Hot Spot HMT assay, inhibition of PRC2 enzymatic activity; format: biochemical; details: 10 nM PRC2 complex, 0.05 mg/ml core histone H3, 1 μM 3H-SAM, 1 hr at 30° C.; read-out: IC50, Inhibition of PRC2-mediated Enzymatic Activity
Protocol: Ten-point dose-response curves for compounds of the present invention were determined using a Hot Spot HMT assay (Reaction Biology Corp; see Horiuchi et al., Assay Drug Dev Technol. (2013) 4: 227-236 doi: 10.1089/adt.2012.480). The assay uses purified human, His-tagged PRC2 complex, including N-terminal His-tagged EZH2 enzyme, N-terminal Flag-tagged embryonic ectoderm development protein (EED), N-terminal His-tagged suppressor of zeste 12 (SUZ12), N-terminal His-tagged AEBP2, and N-terminal His-tagged RbAp48. In this assay, the transfer of the tritiated methyl group from radiolabeled S-adenosyl methionine (SAM) to purified core histone protein by EZH2 is quantitated after filtration to determine the activity of the core PRC2 complex in the presence and absence of compound.
Briefly, compounds of the present invention were solubilized in DMSO and a series of 10, three-fold serial dilutions were made for each compound in 15% DMSO. The initial starting concentration for the serial dilutions of each compound was 1.0 μM. Control samples lacking compound, EZH2 enzyme or various reaction components also were prepared and processed in parallel with compound test samples. SAH (S-(5-adenosyl)-L-homocysteine) was used as a positive control for assay validation.
An aliquot of each serial dilution of test compound was added to deep 384 well plate using Acoustic Technology instrument (Echo 550, LabCyte) containing reaction buffer (50 mM Tris-HCl (pH 8)), 0.01% Brij35, 1 mM EDTA, 1 mM DTT, 1 mM PMSF and 1% DMSO), 10 nM purified PRC2 complex and 0.05 mg/ml core histone H3 in a 5 μl volume. The reaction was mixed gently and then pre-incubated for 20 min at 30° C. The enzymatic reaction was initiated by adding 1 μM S-Adenosyl-L-[methyl-^3H]methionine and incubated for 1 hr at 30° C. After 1 hr, the reaction product was detected using a filter binding method and the amount of tritiated H3 core histone was quantitated using a scintillation counter. The IC50 value for each compound was determined from each 10-point dose-response curve using GraphPad Prism software and the results for compounds of present invention, including compounds of Formula (I) and Formula (II) are shown in Table 6. Key: A=<100 nM; B=>100 nM−<250 nM; and C=>250 nM.

[3] = tested on: PRC2-mediated histone H3 methylation in Pfeiffer cells (EZH2 A677G); experiment: Tri-Methyl Histone H3 (Lys 27) sandwich ELISA in Pfeiffer cells; format: cell-based; details: Homo sapiens, 96 hours incubation, H3K27me3 ELISA, read-out: IC50 (nM), Inhibition of EZH2-mediated Histone H3 Trimethylation
Source text: The Pfeiffer cell line was established from a […] from a patient having metastatic diffuse large B-cell lymphoma (DLBCL). This cell line expresses a mutant form of the EZH2 enzyme (A677G) that results in enhanced EZH2 activity leading to increased methylation of histone H3 Lys27. Increased trimethylation of histone H3 Lys27 is believed to be implicated in tumorgenesis and poor clinical prognosis in lymphomas (McCabe et al., (2012) Nature 492:108-112).
Inhibition of PRC2-mediated histone H3 methylation by compounds of Formula (I) was measured by ELISA using a Tri-Methyl Histone H3 (Lys 27) Sandwich ELISA Kit (Cell Signaling Tech #7866C) in accordance with the manufacturer's instructions. Briefly, Pfeiffer cells were cultured in RPMI medium supplemented with 10% fetal bovine serum and 1% penicillin and 1% streptomycin in 96 well culture plates at 37° C. to a density of 8000 cells/90 μl/well and the cells were harvested. A series of 3-fold serial dilutions of each test compound of Formula (I) were prepared in RPMI medium and added to the cells at final concentrations ranging from […] to 0.15 nM. The plates were incubated at 37° C. for 96 hours.
After incubation, the cells were pelleted by centrifugation in a pre-cooled 4° C. rotor at 1,100 rpm for 10 min and the supernatant was removed by aspiration. The cell pellet was resuspended in 55 μl of Lysis Buffer (0.4M HCl) and incubated on ice with periodic shaking for 30 minutes. The lysed cells were subjected to centrifugation at 4,200 rpm for 10 min at 4° C. and the supernatant containing acid-soluble proteins was collected and the remainder discarded. The acid-soluble proteins were brought to a neutral pH by the addition of 20 μl of Neutralization Buffer (1 M Sodium phosphate, dibasic (pH 12.5), 2.5 mM DTT and 1 mM PMSF) and the neutralized lysates were analyzed by ELISA.
A 65 μl aliquot of each cell lysate was added to a well of a microwell strip, the microwells were sealed using tape and incubated either at 37° C. for two hours or at 4° C. overnight. After incubation, the tape was removed at the microwells were washed four times using 200 μl of 1× Wash Buffer. To each washed microwell, a 100 μl aliquot of an anti-trimethyl histone H3 Lys27 Detection Antibody solution was added and the microwells were incubated at 37° C. for one hour. The Detection Antibody solution was removed by aspiration and the wells were washed four times each using 200 μl of 1× Wash Buffer.
A 100 μl aliquot of an HRP-linked secondary antibody was added to each well, the wells were sealed with tape and incubated at 37° C. for 30 min. The HRP-linked secondary antibody solution was removed by aspiration and the wells were washed four times using 200 μl of 1× Wash Buffer. A 100 μl aliquot of a TMB substrate was added to each well, the wells were sealed with tape and incubated at 37° C. for 10 min or 25° C. for 30 min. The reaction was stopped by the addition of 100 μl aliquot of a STOP solution and the plate was shaken briefly. The degree of histone H3 trimethylation was determined using a spectrophotometric readout by measuring the absorbance at 450 nm and then calculating the amount of trimethylated histone H3. A=≤100 nM; B=>100 nM−≤500 nM; C=>500 nM and N.D.=not determined.

Chain of purified human, His-tagged PRC2 complex (Q15910 whole entry): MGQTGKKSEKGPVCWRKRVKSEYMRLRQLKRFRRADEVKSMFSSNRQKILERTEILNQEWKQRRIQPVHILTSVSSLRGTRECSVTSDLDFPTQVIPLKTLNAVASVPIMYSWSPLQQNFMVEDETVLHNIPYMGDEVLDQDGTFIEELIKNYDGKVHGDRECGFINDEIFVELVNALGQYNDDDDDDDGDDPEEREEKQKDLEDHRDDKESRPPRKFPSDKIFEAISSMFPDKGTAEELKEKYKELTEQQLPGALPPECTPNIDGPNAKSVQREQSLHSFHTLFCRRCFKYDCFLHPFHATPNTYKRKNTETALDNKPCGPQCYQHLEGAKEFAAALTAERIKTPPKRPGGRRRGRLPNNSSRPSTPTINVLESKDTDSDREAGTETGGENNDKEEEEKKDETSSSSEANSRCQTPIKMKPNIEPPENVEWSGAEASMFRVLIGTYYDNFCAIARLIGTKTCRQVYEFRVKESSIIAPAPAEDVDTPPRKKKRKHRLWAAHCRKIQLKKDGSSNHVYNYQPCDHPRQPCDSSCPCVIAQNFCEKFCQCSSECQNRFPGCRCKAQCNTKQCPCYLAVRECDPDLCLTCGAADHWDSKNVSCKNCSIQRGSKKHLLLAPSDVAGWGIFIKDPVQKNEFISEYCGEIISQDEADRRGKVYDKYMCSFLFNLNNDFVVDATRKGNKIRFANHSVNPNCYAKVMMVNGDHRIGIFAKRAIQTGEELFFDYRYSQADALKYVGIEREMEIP
Chain of purified human, His-tagged PRC2 complex (O75530 whole entry): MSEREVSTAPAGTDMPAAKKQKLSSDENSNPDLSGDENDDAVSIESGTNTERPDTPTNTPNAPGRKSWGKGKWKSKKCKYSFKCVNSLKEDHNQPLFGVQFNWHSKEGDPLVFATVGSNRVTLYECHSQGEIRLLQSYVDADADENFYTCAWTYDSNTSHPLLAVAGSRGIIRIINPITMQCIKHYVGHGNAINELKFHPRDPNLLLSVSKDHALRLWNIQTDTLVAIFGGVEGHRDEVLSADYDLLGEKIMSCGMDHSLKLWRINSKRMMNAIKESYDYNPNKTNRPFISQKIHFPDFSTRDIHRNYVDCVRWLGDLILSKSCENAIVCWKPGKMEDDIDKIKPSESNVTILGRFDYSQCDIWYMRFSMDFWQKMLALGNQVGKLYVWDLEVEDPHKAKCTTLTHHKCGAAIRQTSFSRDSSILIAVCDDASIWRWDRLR
Chain of purified human, His-tagged PRC2 complex (Q15022 whole entry partner): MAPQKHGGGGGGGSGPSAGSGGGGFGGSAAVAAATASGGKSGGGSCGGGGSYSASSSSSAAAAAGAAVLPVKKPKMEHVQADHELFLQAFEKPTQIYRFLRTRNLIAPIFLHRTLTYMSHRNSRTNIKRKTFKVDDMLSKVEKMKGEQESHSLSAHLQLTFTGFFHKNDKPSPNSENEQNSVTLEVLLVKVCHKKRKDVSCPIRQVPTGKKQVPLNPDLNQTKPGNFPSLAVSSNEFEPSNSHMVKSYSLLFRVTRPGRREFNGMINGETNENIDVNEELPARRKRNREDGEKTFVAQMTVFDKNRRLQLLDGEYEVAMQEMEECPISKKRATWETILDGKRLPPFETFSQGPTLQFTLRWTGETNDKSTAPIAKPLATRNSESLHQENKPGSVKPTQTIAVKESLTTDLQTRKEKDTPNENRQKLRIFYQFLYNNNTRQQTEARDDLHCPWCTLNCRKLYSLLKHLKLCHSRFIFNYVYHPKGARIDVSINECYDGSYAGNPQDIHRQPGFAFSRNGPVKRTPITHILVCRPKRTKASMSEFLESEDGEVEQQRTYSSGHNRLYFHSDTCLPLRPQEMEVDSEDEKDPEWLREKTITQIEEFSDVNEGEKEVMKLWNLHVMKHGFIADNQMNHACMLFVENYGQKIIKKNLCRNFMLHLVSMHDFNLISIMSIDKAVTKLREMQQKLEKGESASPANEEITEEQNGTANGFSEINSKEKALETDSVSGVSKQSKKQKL
Chain of purified human, His-tagged PRC2 complex (Q6ZN18 whole entry partner): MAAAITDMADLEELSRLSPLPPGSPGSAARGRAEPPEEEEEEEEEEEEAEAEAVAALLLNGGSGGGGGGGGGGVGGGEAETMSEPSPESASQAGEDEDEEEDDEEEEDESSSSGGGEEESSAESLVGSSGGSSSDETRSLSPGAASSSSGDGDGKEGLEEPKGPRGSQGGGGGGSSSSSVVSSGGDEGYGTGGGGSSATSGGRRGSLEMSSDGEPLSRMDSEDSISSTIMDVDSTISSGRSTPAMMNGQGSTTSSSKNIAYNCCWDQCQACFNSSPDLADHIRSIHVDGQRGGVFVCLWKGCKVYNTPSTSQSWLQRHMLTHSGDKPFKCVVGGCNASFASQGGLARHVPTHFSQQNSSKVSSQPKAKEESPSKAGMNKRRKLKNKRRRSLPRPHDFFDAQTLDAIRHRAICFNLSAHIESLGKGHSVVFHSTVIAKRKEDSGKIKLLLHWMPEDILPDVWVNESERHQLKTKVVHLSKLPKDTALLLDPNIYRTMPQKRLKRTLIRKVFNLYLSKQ
Chain of purified human, His-tagged PRC2 complex (Q09028 whole entry partner): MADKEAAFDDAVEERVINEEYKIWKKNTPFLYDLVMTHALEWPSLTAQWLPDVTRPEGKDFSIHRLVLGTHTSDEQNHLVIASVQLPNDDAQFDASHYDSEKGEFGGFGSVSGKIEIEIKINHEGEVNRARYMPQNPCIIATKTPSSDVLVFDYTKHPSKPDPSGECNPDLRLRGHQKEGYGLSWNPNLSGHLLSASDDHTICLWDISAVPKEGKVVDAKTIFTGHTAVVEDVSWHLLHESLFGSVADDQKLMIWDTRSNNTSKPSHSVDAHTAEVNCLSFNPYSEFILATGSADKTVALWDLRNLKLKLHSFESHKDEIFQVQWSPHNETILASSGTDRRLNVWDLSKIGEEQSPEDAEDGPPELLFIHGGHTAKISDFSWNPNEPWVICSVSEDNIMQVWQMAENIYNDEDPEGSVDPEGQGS

SMILES: CNCc1ccc(-c2cnc(NCc3c(F)ccc4c3CCO4)c3cnncc23)cc1 [Example 21, N-((5-fluoro-2,3-dihydrobenzofuran-4-yl)methyl)-8-(4-((methylamino)methyl)phenyl)pyrido[3,4-d]pyridazin-5-amine]
- IC50 [1]: ≤ 250 nM
- IC50 [2]: 100 to 250 nM
- IC50 [3]: 100 to 500 nM

SMILES: Cc1cc(-c2cnc(NCc3c(F)ccc4c3CCO4)c3cncnc23)n(C)n1 [Example 22, 8-(1,3-dimethyl-1H-pyrazol-5-yl)-N-((5-fluoro-2,3-dihydrobenzofuran-4-yl)methyl)pyrido[4,3-d]pyrimidin-5-amine]
- IC50 [1]: ≤ 250 nM
- IC50 [2]: < 100 nM
- IC50 [3]: ≤ 100 nM

SMILES: CN(C)Cc1ccc(-c2cnc(NCc3c(F)ccc4c3CCO4)c3cncnc23)cc1 [Example 23]
- IC50 [1]: ≤ 250 nM
- IC50 [2]: < 100 nM
- IC50 [3]: 100 to 500 nM

SMILES: Cc1cc(CN(C)C)ccc1-c1cnc(NCc2c(F)ccc3c2CCO3)c2cncnc12 [Example 24]
- IC50 [1]: ≤ 250 nM
- IC50 [2]: < 100 nM
- IC50 [3]: ≤ 100 nM

SMILES: CN(C)Cc1ccc(-c2cnc(NCc3cccc4c3CCO4)c3cncnc23)cc1 [Example 25]
- IC50 [1]: ≤ 250 nM
- IC50 [2]: > 250 nM
- IC50 [3]: 100 to 500 nM

SMILES: CNCc1ccc(-c2cnc(NCc3c(F)ccc4c3CCO4)c3cncnc23)c(C)c1 [Example 26, N-((5-fluoro-2,3-dihydrobenzofuran-4-yl)methyl)-8-(2-methyl-4-((methylamino)methyl)phenyl)pyrido[4,3-d]pyrimidin-5-amine]
- IC50 [1]: ≤ 250 nM
- IC50 [2]: < 100 nM
- IC50 [3]: ≤ 100 nM

SMILES: CSc1ncc2c(NCc3c(F)ccc4c3CCO4)ncc(-c3cc(C)nn3C)c2n1 [Example 27, 8-(1,3-dimethyl-1H-pyrazol-5-yl)-N-((5-fluoro-2,3-dihydrobenzofuran-4-yl)methyl)-2-(methylthio)pyrido[4,3-d]pyrimidin-5-amine]
- IC50 [1]: ≤ 250 nM
- IC50 [2]: < 100 nM
- IC50 [3]: 100 to 500 nM

SMILES: COc1ncc2c(NCc3c(F)ccc4c3CCO4)ncc(-c3cc(C)nn3C)c2n1 [Example 28, 8-(1,3-dimethyl-1H-pyrazol-5-yl)-N-((5-fluoro-2,3-dihydrobenzofuran-4-yl)methyl)-2-methoxypyrido[4,3-d]pyrimidin-5-amine]
- IC50 [1]: ≤ 250 nM
- IC50 [2]: < 100 nM
- IC50 [3]: 100 to 500 nM

SMILES: Cc1cc(-c2cnc(NCc3c(F)ccc4c3CCO4)c3cnccc23)n(C)n1 [Example 29, 4-(1,3-dimethyl-1H-pyrazol-5-yl)-N-((5-fluoro-2,3-dihydrobenzofuran-4-yl)methyl)-2,7-naphthyridin-1-amine]
- IC50 [1]: 250 to 500 nM
- IC50 [2]: < 100 nM
- IC50 [3]: 100 to 500 nM

SMILES: Cc1cc(CN(C)C)ccc1-c1cnc(NCc2c(F)ccc3c2CCO3)c2cnccc12 [Example 30]
- IC50 [1]: > 500 nM
- IC50 [2]: > 250 nM
- IC50 [3]: > 500 nM

SMILES: Cc1cc(S(C)(=O)=O)ccc1-c1cnc(NCc2c(F)ccc3c2CCO3)c2cnccc12 [Example 31]
- IC50 [1]: > 500 nM
- IC50 [2]: 100 to 250 nM
- IC50 [3]: > 500 nM

SMILES: CN(C)C(=O)c1cc(-c2cnc(NCc3c(F)ccc4c3CCO4)c3cnccc23)n(C)n1 [Example 32, 5-(1-(((5-fluoro-2,3-dihydrobenzofuran-4-yl)methyl)amino)-2,7-naphthyridin-4-yl)-N,N,1-trimethyl-1H-pyrazole-3-carboxamide]
- IC50 [1]: ≤ 250 nM
- IC50 [2]: < 100 nM
- IC50 [3]: ≤ 100 nM

SMILES: Cn1nc(C#N)cc1-c1cnc(NCc2c(F)ccc3c2CCO3)c2cnccc12 [Example 33, 5-[1-[(5-fluoro-2,3-dihydrobenzofuran-4-yl)methylamino]-2,7-naphthyridin-4-yl]-1-methyl-pyrazole-3-carbonitrile]
- IC50 [1]: > 500 nM
- IC50 [2]: 100 to 250 nM
- IC50 [3]: > 500 nM

SMILES: COc1cc2c(-c3cc(C)nn3C)cnc(NCc3c(F)ccc4c3CCO4)c2cn1 [Example 34, 4-(1,3-dimethyl-1H-pyrazol-5-yl)-N-((5-fluoro-2,3-dihydrobenzofuran-4-yl)methyl)-6-methoxy-2,7-naphthyridin-1-amine]
- IC50 [1]: > 500 nM
- IC50 [2]: 100 to 250 nM
- IC50 [3]: > 500 nM

SMILES: Cc1cc(-c2cnc(NCc3c(F)ccc4c3CCO4)c3c[nH]c(=O)cc23)n(C)n1 [Example 35, 5-(1,3-dimethyl-1H-pyrazol-5-yl)-8-(((5-fluoro-2,3-dihydrobenzofuran-4-yl)methyl)amino)-2,7-naphthyridin-3(2H)-one]
- IC50 [1]: ≤ 250 nM
- IC50 [2]: < 100 nM
- IC50 [3]: ≤ 100 nM

SMILES: Cc1ncccc1-c1cnc(NCc2c(F)ccc3c2CCO3)c2c[nH]c(=O)cc12 [Example 36]
- IC50 [1]: ≤ 250 nM
- IC50 [2]: > 250 nM
- IC50 [3]: 100 to 500 nM

SMILES: O=c1cc2c(-c3ccc(CN4CCCC4)cc3)cnc(NCc3c(F)ccc4c3CCO4)c2c[nH]1 [Example 37]
- IC50 [1]: ≤ 250 nM
- IC50 [2]: 100 to 250 nM
- IC50 [3]: 100 to 500 nM
